Source: patent publication US9340590B2 (priority 2011, dated 2016)
Where two headings read alike, the source gives them in different places. Positions of bridges follow the written chain, without caps; N, C: chain ends. Non-standard residues stand in square brackets, D forms with d. Residues, ends and D or L forms follow the SMILES beside them. Phe(4-COOH) = N[C@@H](Cc1ccc(C(=O)O)cc1)C(=O)O; 2Pal = N[C@@H](Cc1ccccn1)C(=O)O

Key:
Assay in all cases: cell-based
[1] = molecular target: hNav1.5 (Homo sapiens, UniProt Q14524)
[2] = molecular target: hNav1.7 (Homo sapiens, UniProt Q15858); type: cell-based; settings: read-out: IWQ Use Nav1.7
[3] = molecular target: hNav1.3 (Homo sapiens, UniProt Q9NY46); settings: IonWorks Quattro, Use; read-out: IWQ Use Nav1.3
[4] = IonWorks Quattro, Use, read-out: IWQ Use Nav1.5

Chain of hNav1.3 (Q9NY46 whole entry, looked up): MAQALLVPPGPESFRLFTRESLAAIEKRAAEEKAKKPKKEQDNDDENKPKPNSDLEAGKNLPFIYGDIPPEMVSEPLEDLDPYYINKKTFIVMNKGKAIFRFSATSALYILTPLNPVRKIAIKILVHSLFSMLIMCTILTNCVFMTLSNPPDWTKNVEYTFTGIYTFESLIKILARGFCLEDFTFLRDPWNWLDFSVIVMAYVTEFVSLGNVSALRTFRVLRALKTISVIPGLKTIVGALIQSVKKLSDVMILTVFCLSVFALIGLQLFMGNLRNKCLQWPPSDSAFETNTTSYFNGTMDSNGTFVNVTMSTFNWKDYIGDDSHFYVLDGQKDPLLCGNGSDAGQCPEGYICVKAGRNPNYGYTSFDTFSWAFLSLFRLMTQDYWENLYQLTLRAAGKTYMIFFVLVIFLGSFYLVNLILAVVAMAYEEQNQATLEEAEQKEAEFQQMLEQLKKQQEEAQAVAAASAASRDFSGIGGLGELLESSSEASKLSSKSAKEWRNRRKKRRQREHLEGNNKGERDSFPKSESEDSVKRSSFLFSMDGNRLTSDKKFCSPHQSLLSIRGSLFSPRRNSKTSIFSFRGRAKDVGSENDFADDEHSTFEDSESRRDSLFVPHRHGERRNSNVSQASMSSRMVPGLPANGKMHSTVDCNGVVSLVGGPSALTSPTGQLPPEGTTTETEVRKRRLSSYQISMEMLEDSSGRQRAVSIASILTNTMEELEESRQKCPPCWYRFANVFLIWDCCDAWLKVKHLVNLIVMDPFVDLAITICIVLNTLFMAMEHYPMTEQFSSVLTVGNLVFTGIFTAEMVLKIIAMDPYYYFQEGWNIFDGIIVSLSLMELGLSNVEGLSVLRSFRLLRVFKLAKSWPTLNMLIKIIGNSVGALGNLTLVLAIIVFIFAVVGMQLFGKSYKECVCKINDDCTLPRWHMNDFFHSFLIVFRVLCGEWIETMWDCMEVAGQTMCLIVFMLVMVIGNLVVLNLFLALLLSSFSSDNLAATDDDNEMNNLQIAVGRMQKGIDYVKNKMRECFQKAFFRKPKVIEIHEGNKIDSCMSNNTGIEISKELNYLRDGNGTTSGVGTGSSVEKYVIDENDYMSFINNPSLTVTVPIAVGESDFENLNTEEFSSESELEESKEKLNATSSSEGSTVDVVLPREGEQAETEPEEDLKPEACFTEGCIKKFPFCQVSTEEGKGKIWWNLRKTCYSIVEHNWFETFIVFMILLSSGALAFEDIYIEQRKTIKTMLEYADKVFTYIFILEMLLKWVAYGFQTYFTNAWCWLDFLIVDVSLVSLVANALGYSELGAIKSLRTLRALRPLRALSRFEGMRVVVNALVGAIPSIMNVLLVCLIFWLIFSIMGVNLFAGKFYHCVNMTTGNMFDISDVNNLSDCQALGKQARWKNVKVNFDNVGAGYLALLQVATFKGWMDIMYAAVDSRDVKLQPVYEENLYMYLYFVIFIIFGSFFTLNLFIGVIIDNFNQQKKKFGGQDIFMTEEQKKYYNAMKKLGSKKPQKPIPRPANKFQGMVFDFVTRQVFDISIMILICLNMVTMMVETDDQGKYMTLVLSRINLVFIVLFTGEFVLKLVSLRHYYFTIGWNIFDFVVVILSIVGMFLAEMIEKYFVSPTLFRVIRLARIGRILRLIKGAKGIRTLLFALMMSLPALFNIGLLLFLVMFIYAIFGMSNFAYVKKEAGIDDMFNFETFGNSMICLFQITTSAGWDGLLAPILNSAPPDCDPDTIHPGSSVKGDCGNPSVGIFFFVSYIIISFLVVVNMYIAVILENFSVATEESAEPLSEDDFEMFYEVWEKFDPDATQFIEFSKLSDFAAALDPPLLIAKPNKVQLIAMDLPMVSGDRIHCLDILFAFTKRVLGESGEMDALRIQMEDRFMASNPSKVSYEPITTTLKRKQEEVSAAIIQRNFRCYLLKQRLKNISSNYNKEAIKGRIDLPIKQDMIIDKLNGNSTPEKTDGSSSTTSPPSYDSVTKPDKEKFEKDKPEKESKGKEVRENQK
Chain of hNav1.7 (Q15858 whole entry, looked up): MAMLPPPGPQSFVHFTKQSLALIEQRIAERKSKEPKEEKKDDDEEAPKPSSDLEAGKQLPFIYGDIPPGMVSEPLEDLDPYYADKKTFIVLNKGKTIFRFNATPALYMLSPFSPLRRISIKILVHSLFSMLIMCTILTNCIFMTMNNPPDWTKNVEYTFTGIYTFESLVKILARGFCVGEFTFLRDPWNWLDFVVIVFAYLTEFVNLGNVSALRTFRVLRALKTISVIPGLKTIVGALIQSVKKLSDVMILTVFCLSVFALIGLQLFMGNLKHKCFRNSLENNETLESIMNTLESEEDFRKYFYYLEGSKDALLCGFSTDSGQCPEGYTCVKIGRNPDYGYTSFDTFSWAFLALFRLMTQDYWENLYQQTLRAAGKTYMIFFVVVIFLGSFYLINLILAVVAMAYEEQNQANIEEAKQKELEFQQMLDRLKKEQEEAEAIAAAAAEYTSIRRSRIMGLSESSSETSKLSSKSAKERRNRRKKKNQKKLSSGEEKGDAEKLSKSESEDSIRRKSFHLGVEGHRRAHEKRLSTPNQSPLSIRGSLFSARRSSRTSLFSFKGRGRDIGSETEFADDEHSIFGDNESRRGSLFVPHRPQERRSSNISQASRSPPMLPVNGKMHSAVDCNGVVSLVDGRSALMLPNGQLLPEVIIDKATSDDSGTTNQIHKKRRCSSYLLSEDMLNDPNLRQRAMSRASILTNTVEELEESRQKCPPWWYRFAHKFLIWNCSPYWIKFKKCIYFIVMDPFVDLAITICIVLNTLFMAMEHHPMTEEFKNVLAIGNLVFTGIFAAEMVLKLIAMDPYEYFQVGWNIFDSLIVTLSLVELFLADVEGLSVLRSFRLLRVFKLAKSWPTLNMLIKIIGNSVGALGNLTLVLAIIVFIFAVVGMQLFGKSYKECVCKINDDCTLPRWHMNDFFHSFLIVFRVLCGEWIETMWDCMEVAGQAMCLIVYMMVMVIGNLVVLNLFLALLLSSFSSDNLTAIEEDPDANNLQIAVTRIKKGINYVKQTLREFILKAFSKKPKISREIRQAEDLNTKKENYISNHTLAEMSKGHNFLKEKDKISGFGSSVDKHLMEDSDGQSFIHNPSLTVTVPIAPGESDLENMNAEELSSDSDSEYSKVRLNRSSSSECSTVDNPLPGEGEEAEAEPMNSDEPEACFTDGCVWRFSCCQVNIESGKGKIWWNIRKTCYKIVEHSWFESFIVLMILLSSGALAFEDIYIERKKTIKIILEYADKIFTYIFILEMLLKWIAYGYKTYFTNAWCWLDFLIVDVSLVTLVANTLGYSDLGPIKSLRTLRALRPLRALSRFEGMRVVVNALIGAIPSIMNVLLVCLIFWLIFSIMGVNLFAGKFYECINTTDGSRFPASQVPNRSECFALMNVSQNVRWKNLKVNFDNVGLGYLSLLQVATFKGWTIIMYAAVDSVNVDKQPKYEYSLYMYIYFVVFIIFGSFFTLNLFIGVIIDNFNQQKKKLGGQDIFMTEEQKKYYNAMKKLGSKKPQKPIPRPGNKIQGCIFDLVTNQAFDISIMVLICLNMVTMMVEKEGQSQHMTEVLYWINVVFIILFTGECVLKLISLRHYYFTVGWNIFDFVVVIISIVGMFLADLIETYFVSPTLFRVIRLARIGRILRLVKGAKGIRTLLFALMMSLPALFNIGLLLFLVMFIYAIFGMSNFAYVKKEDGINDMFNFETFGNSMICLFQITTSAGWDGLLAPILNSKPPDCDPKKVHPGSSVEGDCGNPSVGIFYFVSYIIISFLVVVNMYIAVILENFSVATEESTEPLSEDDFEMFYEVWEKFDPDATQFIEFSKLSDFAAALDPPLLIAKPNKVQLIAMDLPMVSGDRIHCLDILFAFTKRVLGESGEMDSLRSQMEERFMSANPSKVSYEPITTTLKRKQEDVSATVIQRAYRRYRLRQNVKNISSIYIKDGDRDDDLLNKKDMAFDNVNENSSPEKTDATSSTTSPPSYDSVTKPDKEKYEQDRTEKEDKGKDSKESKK

Compound `CC[C@H](C)[C@@H]1NC(=O)[C@@H]2CSSC[C@@H]3NC(=O)[C@H](C(C)C)NC(=O)[C@H](CC(C)C)NC(=O)[C@H](CC(N)=O)NC(=O)[C@@H]4CCCN4C(=O)[C@H](CCCNC(=NC)NC)NC(=O)[C@H](CSSC[C@H](NC(=O)[C@@H](N)CC(=O)O)C(=O)N[C@@H](CC(C)C)C(=O)NCC(=O)N[C@@H](Cc4ccccc4)C(=O)N[C@@H](CCSC)C(=O)N[C@@H](CCCNC(=N)N)C(=O)N[C@@H](CCCCN)C(=O)N2)NC(=O)[C@H](CSSC[C@@H](C(=O)N[C@@H](CCCCN)C(=O)N[C@@H](Cc2ccc(O)cc2)C(=O)N[C@H](C(=O)N[C@@H](Cc2ccccc2)C(N)=O)C(C)C)NC(=O)[C@H](Cc2c[nH]c4ccccc24)NC(=O)[C@H](CCCCN)NC(=O)[C@H](Cc2c[nH]cn2)NC(=O)[C@H]([C@@H](C)O)NC(=O)[C@H](CCCNC(=N)N)NC(=O)[C@H](CO)NC3=O)NC(=O)[C@H](CCCCN)NC(=O)[C@H](CC(=O)O)NC(=O)[C@H](CC(N)=O)NC(=O)[C@H](CC(=O)O)NC(=O)[C@@H]2CCCN2C1=O` [compound 315] has an IC50 ([1]; IWQ Use Nav1.5 (μM)) of 10.5 µM, an IC50 [2] of 140 nM and an IC50 [3] of 100 nM.
`CC[C@H](C)[C@@H]1NC(=O)[C@@H]2CSSC[C@@H]3NC(=O)[C@H](C(C)C)NC(=O)[C@H](CC(C)C)NC(=O)[C@H](CC(N)=O)NC(=O)[C@@H]4CCCN4C(=O)[C@H](Cc4ccccn4)NC(=O)[C@H](CSSC[C@H](NC(=O)[C@@H](N)CC(=O)O)C(=O)N[C@@H](CC(C)C)C(=O)NCC(=O)N[C@@H](Cc4ccccc4)C(=O)N[C@@H](CCSC)C(=O)N[C@@H](CCCNC(=N)N)C(=O)N[C@@H](CCCCN)C(=O)N2)NC(=O)[C@H](CSSC[C@@H](C(=O)N[C@@H](CCCCN)C(=O)N[C@@H](Cc2ccc(O)cc2)C(=O)N[C@H](C(=O)N[C@@H](Cc2ccccc2)C(N)=O)C(C)C)NC(=O)[C@H](Cc2c[nH]c4ccccc24)NC(=O)[C@H](CCCCN)NC(=O)[C@H](Cc2cnc[nH]2)NC(=O)[C@H]([C@@H](C)O)NC(=O)[C@H](CCCNC(=N)N)NC(=O)[C@H](CO)NC3=O)NC(=O)[C@H](CCCCN)NC(=O)[C@H](CC(=O)O)NC(=O)[C@H](CC(N)=O)NC(=O)[C@H](CC(=O)O)NC(=O)[C@@H]2CCCN2C1=O` [compound 316] (H-DCLGFMRKCIPDNDKCC[2Pal]PNLVCSRTHKWCKYVF-NH2; disulfide 2-17, 9-23, 16-30) gave an IC50 [1, 4] of 9.17 µM, an IC50 ([2]; IonWorks Quattro, Use) of 190 nM and an IC50 [3] of 60 nM.
`CC[C@H](C)[C@@H]1NC(=O)[C@@H]2CSSC[C@@H]3NC(=O)[C@H](C(C)C)NC(=O)[C@H](Cc4ccc(C(=O)O)cc4)NC(=O)[C@H](CC(N)=O)NC(=O)[C@@H]4CCCN4C(=O)[C@H](CCCNC(=N)N)NC(=O)[C@H](CSSC[C@H](NC(=O)[C@@H](N)CC(=O)O)C(=O)N[C@@H](CC(C)C)C(=O)NCC(=O)N[C@@H](Cc4ccccc4)C(=O)N[C@@H](CCSC)C(=O)N[C@@H](CCCNC(=N)N)C(=O)N[C@@H](CCCCN)C(=O)N2)NC(=O)[C@H](CSSC[C@@H](C(=O)N[C@@H](CCCCN)C(=O)N[C@@H](Cc2ccc(O)cc2)C(=O)N[C@H](C(=O)N[C@@H](Cc2ccccc2)C(N)=O)C(C)C)NC(=O)[C@H](Cc2c[nH]c4ccccc24)NC(=O)[C@H](CCCCN)NC(=O)[C@H](Cc2c[nH]cn2)NC(=O)[C@H]([C@@H](C)O)NC(=O)[C@H](CCCNC(=N)N)NC(=O)[C@H](CO)NC3=O)NC(=O)[C@H](CCCCN)NC(=O)[C@H](CC(=O)O)NC(=O)[C@H](CC(N)=O)NC(=O)[C@H](CC(=O)O)NC(=O)[C@@H]2CCCN2C1=O` [compound 317] (H-DCLGFMRKCIPDNDKCCRPN[Phe(4-COOH)]VCSRTHKWCKYVF-NH2; disulfide 2-17, 9-23, 16-30) was tested, and the IC50 [1, 4] was 8.9 µM, the IC50 ([2]; IonWorks Quattro, Use) was 3980 nM and the IC50 [3] was 3670 nM.
`CC[C@H](C)[C@@H]1NC(=O)[C@@H]2CSSC[C@@H]3NC(=O)[C@H](C(C)C)NC(=O)[C@H](Cc4ccccn4)NC(=O)[C@H](CC(N)=O)NC(=O)[C@@H]4CCCN4C(=O)[C@H](CCCNC(=N)N)NC(=O)[C@H](CSSC[C@H](NC(=O)[C@@H](N)CC(=O)O)C(=O)N[C@@H](CC(C)C)C(=O)NCC(=O)N[C@@H](Cc4ccccc4)C(=O)N[C@@H](CCSC)C(=O)N[C@@H](CCCNC(=N)N)C(=O)N[C@@H](CCCCN)C(=O)N2)NC(=O)[C@H](CSSC[C@@H](C(=O)N[C@@H](CCCCN)C(=O)N[C@@H](Cc2ccc(O)cc2)C(=O)N[C@H](C(=O)N[C@@H](Cc2ccccc2)C(N)=O)C(C)C)NC(=O)[C@H](Cc2c[nH]c4ccccc24)NC(=O)[C@H](CCCCN)NC(=O)[C@H](Cc2c[nH]cn2)NC(=O)[C@H]([C@@H](C)O)NC(=O)[C@H](CCCNC(=N)N)NC(=O)[C@H](CO)NC3=O)NC(=O)[C@H](CCCCN)NC(=O)[C@H](CC(=O)O)NC(=O)[C@H](CC(N)=O)NC(=O)[C@H](CC(=O)O)NC(=O)[C@@H]2CCCN2C1=O` [compound 318] (H-DCLGFMRKCIPDNDKCCRPN[2Pal]VCSRTHKWCKYVF-NH2; disulfide 2-17, 9-23, 16-30) showed an IC50 [1, 4] of 7.52 µM, an IC50 ([2]; IonWorks Quattro, Use) of 180 nM and an IC50 [3] of 80 nM.
`CC[C@H](C)[C@@H]1NC(=O)[C@@H]2CSSC[C@@H]3NC(=O)[C@H](Cc4ccccc4)NC(=O)[C@H](CC(C)C)NC(=O)[C@H](CC(N)=O)NC(=O)[C@@H]4CCCN4C(=O)[C@H](CCCNC(=N)N)NC(=O)[C@H](CSSC[C@H](NC(=O)[C@@H](N)CC(=O)O)C(=O)N[C@@H](CC(C)C)C(=O)NCC(=O)N[C@@H](Cc4ccccc4)C(=O)N[C@@H](CCSC)C(=O)N[C@@H](CCCNC(=N)N)C(=O)N[C@@H](CCCCN)C(=O)N2)NC(=O)[C@H](CSSC[C@@H](C(=O)N[C@@H](CCCCN)C(=O)N[C@@H](Cc2ccc(O)cc2)C(=O)N[C@H](C(=O)N[C@@H](Cc2ccccc2)C(N)=O)C(C)C)NC(=O)[C@H](Cc2c[nH]c4ccccc24)NC(=O)[C@H](CCCCN)NC(=O)[C@H](Cc2c[nH]cn2)NC(=O)[C@H]([C@@H](C)O)NC(=O)[C@H](CCCNC(=N)N)NC(=O)[C@H](CO)NC3=O)NC(=O)[C@H](CCCCN)NC(=O)[C@H](CC(=O)O)NC(=O)[C@H](CC(N)=O)NC(=O)[C@H](CC(=O)O)NC(=O)[C@@H]2CCCN2C1=O` [compound 319] (H-DCLGFMRKCIPDNDKCCRPNLFCSRTHKWCKYVF-NH2; disulfide 2-17, 9-23, 16-30) gave an IC50 ([1]; IWQ Use Nav1.5 (μM)) greater than 5 µM, an IC50 ([2]; IonWorks Quattro, Use) of 700 nM and an IC50 [3] of 1020 nM.
For `CC[C@H](C)[C@@H]1NC(=O)[C@@H]2CSSC[C@@H]3NC(=O)[C@@H]4CCCN4C(=O)[C@H](CC(C)C)NC(=O)[C@H](CC(N)=O)NC(=O)[C@@H]4CCCN4C(=O)[C@H](CCCNC(=N)N)NC(=O)[C@H](CSSC[C@H](NC(=O)[C@@H](N)CC(=O)O)C(=O)N[C@@H](CC(C)C)C(=O)NCC(=O)N[C@@H](Cc4ccccc4)C(=O)N[C@@H](CCSC)C(=O)N[C@@H](CCCNC(=N)N)C(=O)N[C@@H](CCCCN)C(=O)N2)NC(=O)[C@H](CSSC[C@@H](C(=O)N[C@@H](CCCCN)C(=O)N[C@@H](Cc2ccc(O)cc2)C(=O)N[C@H](C(=O)N[C@@H](Cc2ccccc2)C(N)=O)C(C)C)NC(=O)[C@H](Cc2c[nH]c4ccccc24)NC(=O)[C@H](CCCCN)NC(=O)[C@H](Cc2c[nH]cn2)NC(=O)[C@H]([C@@H](C)O)NC(=O)[C@H](CCCNC(=N)N)NC(=O)[C@H](CO)NC3=O)NC(=O)[C@H](CCCCN)NC(=O)[C@H](CC(=O)O)NC(=O)[C@H](CC(N)=O)NC(=O)[C@H](CC(=O)O)NC(=O)[C@@H]2CCCN2C1=O` [compound 320] (H-DCLGFMRKCIPDNDKCCRPNLPCSRTHKWCKYVF-NH2; disulfide 2-17, 9-23, 16-30), the IC50 [1, 4] was greater than 5 µM, the IC50 ([2]; IonWorks Quattro, Use) was greater than 5000 nM and the IC50 [3] was greater than 5000 nM.
